# In US20240279684A1, “CYTOSOLIC DELIVERY OF GENOME EDITING TOOLS” (SAPREME TECHNOLOGIES B.V., priority 2021, published 2024):
# Entries after “also recorded” stand apart in the source; their conditions may differ.
# Tests used:
# JIMT-1 cells = assay: Transfection efficiency of PD-nanoplexes with/without saponin, flow cytometry (GFP); assay type: cell-based, human; details: GFP-DNA PD-nanoplexes, saponin 2 μg/ml
# Protocol: After biophysical characterisation had established that nanoplexes of the large plasmid DNA and the poly-lysine peptide were formed, cell experiments were performed: transfections. […] Without wishing to be bound by any theory, the latter effect is most likely due to insufficient complexing of DNA. […] JIMT-1-cells (DSMZ no.: ACC 589) and Neuro-2A- cells (DSMZ no.: ACC 148) were transfected with nanoplexes containing relatively large Cas9-GFP-plasmid, with and without GE1741-Co-application or SO1861-Co-application at a non-toxic concentration, when the cell which is to be transfected is considered. The transfection efficiency of all transfection conditions was measured after 48 h incubation time using flow cytometry by comparison to the negative control in terms of fluorescence intensity (for example, cells contacted with the nanoparticles in the absence of saponin). The efficiency of GE1741-based transfections and SO1861-based transfections was also compared with efficiency of Lipofectamine3000™-based transfection of the nanoparticles. Transfections were performed according to protocols commonly known and applied in the field (Clochard et al., 2020; Sama et al., 2018a; Sama et al., 2017; Sama et al., 2018b). […] Transfection efficiency of GE1741-mediated PD-transfection and SO1861-mediated PD-transfections on Neuro-2A cells and JIMT-1 cells was assessed. […]
# [1] = system: cells with which the nanoplexes are contacted; assay: Toxicity of saponin towards cells during transfection; assay type: cell-based
# Text: It is part of the invention that the method or the use of the invention is characterized in that the nanoparticle comprises the nanoparticle-forming compound, such as a peptide, such as poly-lysine, and the nucleic acid in a mass ratio in a range of 3:1 to 15:1, preferably in a range of 3:1 to 9:1. Typically, the nanoparticle-forming compound is a poly-lysine peptide such as K16 peptide. Preferred is the method wherein the nucleic acid is a plasmid DNA, at least encoding for a Cas, preferably Cas9 (SEQ ID NO: 1), and optionally also encoding for the gRNA, and wherein the nanoparticles comprise in addition to the plasmid DNA at least one poly-lysine peptide, preferably poly-lysine K16 peptide (poly-lysine peptide consisting of sixteen lysine residues). Alternatively, the poly-lysine peptide is a peptide consisting of 8-25 lysine residues, preferably 10-20, more preferably 12-18. High in vitro transfection efficiency is obtained with the method of the invention when nanoparticles encompassing plasmid DNA, K16 peptide are prepared and applied, and are contacted with cells in the presence of a saponin selected from GE1741 and SO1861, and preferably the saponin is GE1741. Typically, the saponin concentration during transfection of the plasmid DNA into selected target cells in vitro is 1 μg/mL-5 μg/mL, preferably 2-4 μg/mL. […] Cells are typically contacted with a composition comprising the nanoplexes and a separate composition comprising the saponin, preferably GE1741. Thus, typically, the nanoparticles comprise the poly-lysine peptide and the nucleic acid, for example at least a plasmid DNA encoding for a Cas, preferably Cas9 (SEQ ID NO: 1), or a Cas with at least 90% sequence identity with this Cas9, preferably 90-99.5% sequence identity, such as 92%, 93%, 94%, 95% or 95-99%.
# Neuro-2A-cells = assay: Confluence measurements during PD-transfections (Cytosmart live-cell imager); assay type: cell-based, murine; details: Cas9-GFP- and GFP-DNA-transfections ± saponin, up to 95 h, vs untreated negative control
# Protocol: FIG. 5A-F. Confluence measurements of Neuro-2A-cells during PD (Cas9-GFP)-transfections ±saponin-administration. A visual monitoring of confluence was conducted during the Cas9-GFP-transfections (FIGS. 5A, E, F) and GFP-DNA-transfections (FIGS. 5A, C, D) of Neuro-2A-cells. The display of confluence during the incubation time was provided by algorithms of the Cytosmart. […] Saponin GE1741 was absent (FIGS. 5A, C, E) or present (FIGS. 5A, D, F) during the confluency assessment over time. FIG. 5B-F show the Neuro-2A cell-confluency after an incubation time of 95 h.
# In the course of the transfection process of Neuro-2A-cells (seeding, transfection, incubation), the cells were fully imaged and analyzed for confluence by a live-cell imager (Cytosmart Omni). Via cloud-based algorithms, which processed the visual images, the Cytosmart provided a valuable measure of viability in terms of confluence.
# Neuro-2A cells = assay: Transfection efficiency of PD-nanoplexes with/without saponin, flow cytometry (GFP); assay type: cell-based, murine
# Protocol: After biophysical characterisation had established that nanoplexes of the large plasmid DNA and the poly-lysine peptide were formed, cell experiments were performed: transfections. […] Without wishing to be bound by any theory, the latter effect is most likely due to insufficient complexing of DNA. […] JIMT-1-cells (DSMZ no.: ACC 589) and Neuro-2A- cells (DSMZ no.: ACC 148) were transfected with nanoplexes containing relatively large Cas9-GFP-plasmid, with and without GE1741-Co-application or SO1861-Co-application at a non-toxic concentration, when the cell which is to be transfected is considered. The transfection efficiency of all transfection conditions was measured after 48 h incubation time using flow cytometry by comparison to the negative control in terms of fluorescence intensity (for example, cells contacted with the nanoparticles in the absence of saponin). The efficiency of GE1741-based transfections and SO1861-based transfections was also compared with efficiency of Lipofectamine3000™-based transfection of the nanoparticles. Transfections were performed according to protocols commonly known and applied in the field (Clochard et al., 2020; Sama et al., 2018a; Sama et al., 2017; Sama et al., 2018b). […] Transfection efficiency of GE1741-mediated PD-transfection and SO1861-mediated PD-transfections on Neuro-2A cells and JIMT-1 cells was assessed. Cells were transfected with Cas9-GFP-DNA containing PD-nanoplexes, with and without GE1741 or SO1861 (final concentration of the saponin was 2 μg/ml). In Neuro-2A cells and JIMT-1 cells transection efficiency varied between 30% and 40%. Lipofectamin3000 served as reference. n≥3; a significant difference compared to the GE1741-free transfections or SO1861-free transfections was apparent, U-test, p≤0.05.
# FIG. 4A, B. Transfection efficiency of saponin-mediated PD (Cas9-GFP)-transfections on Neuro-2A cells (FIG. 4A) and on JIMT-1-cells (FIG. 4B). Neuro-2A cells (A) and JIMT-1 cells (B) were transfected with GFP-DNA (i.e. a plasmid comprising the GFP DNA) bearing PD-nanoplexes or with Cas9-GFP-DNA bearing PD-nanoplexes, with and without the highest non-toxic saponin Co-administration (GE1741 Co-administration at 2 μg/ml or SO1861 Co-administration at 2 μg/ml). While GFP-DNA-transfections reached high efficiencies of around 70%, approximately 40% of all cells expressed GFP after Cas9-GFP-transfection. […] N≥3; *: significant difference compared to the saponin-free transfection (only nuclease), U-test.
# JIMT-1-cells (human breast carcinoma) and Neuro-2A-cells (murine neuroblastoma) were transfected with nanoplexes, containing Cas9-GFP-plasmid, with and without saponin GE1741-co-application or saponin SO1861-co-application (that is to say, the saponin is added to the cell culture together with the addition of the nanoparticles comprising the nucleic acid that is to be transfected in the presence of the saponin), in a non-toxic concentration when the saponins are considered. The mass ratios for the peptide and the nucleic acid (plasmid DNA) in the nanoparticles were selected considering the dynamic light scattering (DLS) measurements and considering the aforementioned earlier assessed toxicity and earlier performed efficiency studies. The transfection efficiency of all transfection conditions was measured after 48 h incubation time via flow cytometry by comparison to the negative control in terms of fluorescence intensity (FIG. 4). […]
compound,measurement,setting,value
CC(=O)OC1C(C)OC(OC2C(C)OC(OC(=O)C34CCC(C)(C)CC3C3=CCC5C6(C)CCC(OC7OC(C(=O)O)C(O)C(OC8OCC(O)C(O)C8O)C7OC7OC(CO)C(O)C(O)C7O)C(C)(C=O)C6CCC5(C)C3(C)CC4O)C(OC3OC(C)C(OC4OCC(O)C(OC5OCC(O)C(O)C5O)C4O)C(O)C3O)C2O)C(O)C1OC(C)=O (stereo not drawn) [GE1741],transfection efficiency (cells expressing GFP),JIMT-1 cells,around 70%
same,highest non-toxic saponin Co-administration,[1],2 µg/mL
same,toxic effects by confluence,Neuro-2A-cells,No distinct toxic effects
same,transfection efficiency (cells expressing GFP),"Neuro-2A cells; GFP-DNA PD-nanoplexes, saponin 2 μg/ml, Neuro-2A",around 70%
same,transfection modulating properties compared to SO1861,"Neuro-2A cells; large plasmid PD-nanoplexes, Neuro-2A and JIMT-1",slightly better transfection modulating properties; also recorded: even more improved transfection efficiency
same,transfection efficiency compared with Lipofectamine3000,"Neuro-2A cells; nanoplexes of relatively large DNA plasmid and poly-lysine, saponin present",higher than obtainable with current gold standard Lipofectamine3000™
